Test results taken from patent US10132795B2, “Method for evaluating or selecting agent for suppressing GIP level elevation” (Kao Corporation, priority 2014, dated 2018).

Key:
[1] = test system: blood GIP and triglyceride (TG) concentrations; test: Single-dose administration test in mice (lipid emulsion load after FABP4/5 inhibitor); assay type: in vivo, mice (C57BL/6J); conditions: 30 mg/kg body weight intragastric
Procedure: Mice (C57BL/6J, male, 9 weeks old, n=4 to 5, CLEA Japan, Inc.) were fasted for 18 hours and then given intragastric administration of the FABP4/5 inhibitor BMS309403 (30 mg/kg body weight) in a solvent (10% 1-methyl-2-pyrrolione, 5% cremophor, and 2% ethanol) or only the solvent (control) through feeding needles under anesthesia. After 30 minutes, intragastric administration of lipid emulsions (triolein; 2 mg/kg body weight) was given. Blood was collected from the orbital sinus before and 10, 30, and 60 minutes after the administration of lipid emulsions. The blood thus collected was centrifuged at 11,000 rpm, 4° C. for 10 minutes to prepare the plasma. The blood GIP and triglyceride (TG) concentrations were measured with a GIP ELISA kit (for rat/mouse) (Merck Millipore Corporation) and a triglyceride E-test Wako (Wako Pure Chemical Industries, Ltd.), respectively.

[2] = test system: mouse model of type-II diabetes or arteriosclerosis; conditions: oral administration; Non Patent Literature 18; cited from earlier work
[3] = test system: primary culture cells of the small intestine; test: FABP4/5 inhibition test: lipid micelle (PPM)-stimulated GIP secretion in primary culture cells of the small intestine; assay type: cell-based, C57BL/6J mice; conditions: inhibitor 10 or 25 μM, 30 min pre-incubation and 30 min PPM stimulation; compared to PPM group; FIG. 3
Description: C57BL/6J mice, 13 to 17 weeks old, were euthanized by cervical dislocation under anesthesia. The upper part of the small intestine (up to 10 cm immediately below the pylorus) was taken out and immersed in ice-cooled L-15 media (Sigma-Aldrich Co. LLC.). The small intestine was then transferred to ice-cooled PBS. Fat, blood vessels, etc. adhering to the intestinal tract were carefully removed. The inside of the lumen was washed with ice-cooled PBS and the tissue was cut into small pieces (pieces having an area of 2 mm^2 or smaller) with a scalpel. The small pieces were washed three to four times with PBS, to which 10 mL of DMEM (Sigma-Aldrich Co. LLC.) having Collagenase XI (Sigma-Aldrich Co. LLC.; 0.4 mg/mL) dissolved therein was added, followed by vigorous shaking for 10 seconds and then incubation at 37° C. for five minutes. The supernatants were then removed and 10 mL of the Collagenase solution was added again, followed by vigorous shaking for 10 seconds and then incubation at 37° C. for five minutes. […]
The media thus collected were centrifuged at 8,000 rpm, 4° C. for five minutes to obtain supernatants (secretion samples). […] GIP was quantitated in these samples with a GIP ELISA kit (for rat/mouse) (Merck Millipore Corporation) to obtain GIP secretion rates.

[4] = 30 min before lipid emulsion, compared to control group, FIG. 2B
[5] = 30 min before triolein lipid emulsion, blood at 10, 30, 60 min, compared to control (solvent) group, FIG. 2A

CCc1c(-c2ccccc2)c(-c2ccccc2)nn1-c1ccccc1-c1cccc(OCC(=O)O)c1 [BMS309403]
Cmax of the blood GIP concentration [1, 4]: statistically significantly reduced | iAUC (0-1 h) of the blood GIP concentration [1, 4]: statistically significantly reduced | increase in the blood GIP concentration (ΔGIP) after the administration of lipid emulsions [1, 5]: statistically significantly reduced | increase in the blood TG concentration (ΔTG) after the administration of lipid emulsions [1, 5]: statistically significantly reduced | pathological condition in mouse model of type-II diabetes or arteriosclerosis [2]: Amelioration in the pathological condition | increase in the GIP secretion rate of PPM-stimulated cells [3]: dose-dependently suppressed
